Measurements published in US9527803B2, “Crystal form VII of agomelatine, preparation method and use thereof and pharmaceutical composition containing same” (LES LABORATOIRES SERVIER, priority 2011, dated 2016).
Values after ≈ are worked out from the molar mass of the structure shown. Read-outs that look alike come from different tables or passages of the source.

Experiments:
Format in all cases: physicochemical
[1] = Measurement of water solubility (HPLC, external standard method)
From the text: 3. Measurement of Water Solubility
The HPLC method was used to determine water solubility, with measurements being made using an external standard method.

[2] = Storage stability of crystalline forms at 40° C. for 20 days, purity and content by HPLC; conditions: for Content: external standard method; for Purity: internal standard method
Procedure: Crystalline forms II, III, VI and VII (obtained through embodiment 3) are each placed in thermostatic containers at a temperature of 40° C. and stored for 20 days, with the stability of these crystalline samples being studied using the method of High Performance Liquid Chromatography.
1. Purity Measurement of the Sample
Chromatographic conditions: Octadecyl silane chemically bonded silica is used as packing; a mixed solution of 10 mmol/L phosphate buffer (adjusted to pH 7.0 with sodium hydroxide) and acetonitrile in the ratio 2:7 by volume acts as the mobile phase; column temperature 40° C.; and detection wavelength 220 nm. Purity is measured using an internal standard method.
In the mobile phase, crystalline forms II, III, VI and VII are distributed into 1 mg/mL solutions, 10 μL of each of which are then passed into a liquid chromatograph, with their chromatograms being recorded.
The reference sample purity measurement method was used, with measurements being made using an external standard method, the results are shown in Table I.

[3] = Determination of crystalline stability (pharmacopoeia stability assessment method); design: key: ✓: stable; x: unstable; conditions: for Crystalline stability, influencing factor: high temperature / Crystalline stability, influencing factor: high humidity / Crystalline stability, influencing factor: illumination: exposed for 10 days; for Crystalline stability, influencing factor: high temperature: 60° C.; for Crystalline stability, influencing factor: high humidity: 92.5% RH; for Crystalline stability, influencing factor: high humidity / Crystalline stability, long term testing (6 months) / Crystalline stability, long term testing (9 months) / Crystalline stability, long term testing (12 months): 25° C.; for Crystalline stability, influencing factor: illumination: 4500 lx; for Crystalline stability, accelerated testing: hermetically sealed for 6 months, 40° C., 75% RH; for Crystalline stability, long term testing (6 months) / Crystalline stability, long term testing (9 months) / Crystalline stability, long term testing (12 months): hermetically sealed, 60% RH
Procedure: 4. Determination of Crystalline Stability
Measured using the pharmacopoeia stability assessment method: • 1) Influencing factor testing (exposed for 10 days): high temperature (60° C.), illumination (4500 lx), high humidity (92.5% RH, 25° C.) • 2) Accelerated testing (hermetically sealed for 6 months): temperature 40° C., humidity 75% RH • 3) Long term testing (hermetically sealed for 12 months): temperature 25° C., humidity 60% RH

[4] = After storage in thermostatically controlled containers at 40° C. for 20 days

SMILES | solubility [1] [µg/mL] | Content [2, 4] [%] | Purity [2, 4] [%] | Content ([2]; Before storage) [%] | Purity ([2]; Before storage) [%] | Crystalline stability, influencing factor: high temperature [3] | Crystalline stability, influencing factor: high humidity [3] | Crystalline stability, influencing factor: illumination [3] | Crystalline stability, accelerated testing [3] | Crystalline stability, long term testing (6 months) [3] | Crystalline stability, long term testing (9 months) [3] | Crystalline stability, long term testing (12 months) [3] | solubility ([1]; read-out: Solubility) [µg/mL]
COc1ccc2cccc(CCNC(C)=O)c2c1 [Crystalline form II, N-[2-(7-methoxy-1-naphthyl)ethyl]acetamide] | 301 (≈ 1240 µM) | 99.6 | 99.3 | 99.5 | 99.7 | ✓* | ✓ | ✓ | ✓ | ✓ | ✓ | ✓ | –
COc1ccc2cccc(CCNC(C)=O)c2c1 [Crystalline form III, N-[2-(7-methoxy-1-naphthyl)ethyl]acetamide] | – | 99.4 | 99.3 | 99.5 | 99.9 | – | – | – | – | – | – | – | –
COc1ccc2cccc(CCNC(C)=O)c2c1 [Crystalline form VI, N-[2-(7-methoxy-1-naphthyl)ethyl]acetamide] | – | 99.1 | 99.6 | 99.3 | 99.7 | x* | ✓ | ✓ | ✓ | ✓ | ✓ | x | –
COc1ccc2cccc(CCNC(C)=O)c2c1 [Crystalline form VII, N-[2-(7-methoxy-1-naphthyl)ethyl]acetamide] | – | 99.6 | 99.7 | 99.8 | 99.8 | ✓ | ✓ | ✓ | ✓ | ✓ | ✓ | ✓ | 330 (≈ 1360 µM)
